{"source": "patent US12371454B2", "about": "“Cyclic peptide compound having Kras inhibitory action” (priority 2019, dated 2025)", "key": {"[1]": {"test_system": "Human pancreatic cancer cell line AsPC-1", "test": "Measurement of AsPC-1 cell growth inhibition (AsPC-1 CGI)", "assay_type": "cell-based", "details": "96 h", "in_short": "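AsPC-1 cells in 15% FBS RPMI-1640 were exposed to test compound for 96 hours at 37° C, with CellTiter-Glo as endpoint.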"}, "[2]": {"biological_target": "T1, Kras and SOS1 (biotin-tagged human Kras loaded with GDP, His-tagged human SOS1) (Homo sapiens, UniProt P01116, G12D)", "T1 construct": "made in house; host or cells: E. coli (stated for Kras only)", "T1 sequence (P01116 1-188 isoform P01116-2 G12D)": "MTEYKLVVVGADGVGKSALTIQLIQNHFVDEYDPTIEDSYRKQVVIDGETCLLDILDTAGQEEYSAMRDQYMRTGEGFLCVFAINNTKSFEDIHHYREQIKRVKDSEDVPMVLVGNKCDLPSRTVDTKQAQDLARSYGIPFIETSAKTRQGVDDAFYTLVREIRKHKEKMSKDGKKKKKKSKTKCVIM", "test": "Protein-protein interaction inhibition between Kras and SOS1 (KrasGl2D-SOS PPI) using AlphaScreen", "assay_type": "binding", "details": "AlphaScreen; biotin-tagged human Kras loaded with GDP, His-tagged human SOS1; read-out: KRAS G12D-SOS PPI IC50", "in_short": "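AlphaScreen format: Ni donor beads capture His-SOS1, streptavidin acceptor beads capture biotinylated Kras (E. coli-expressed, GDP-loaded post-purification). Excite 680 nm, read 520-620 nm.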"}}, "note": "pIC50: −log10 of the molar value. Starred links: 1 amine or outer side, 2 acyl side, 3 side chain; linkers in the order of their positions; H or OH if unused. Positions of bridges follow the written chain, without caps; N, C: chain ends. Non-standard residues stand in square brackets, D forms with d. Residues, ends and D or L forms follow the SMILES beside them. *: point of attachment. hPhe(3-Cl-4-CF3) = N[C@@H](CCc1ccc(C(F)(F)F)c(Cl)c1)C(=O)O; X19 = CC(C)(C)Oc1cc(CC[C@H](N[*:1])C(=O)[*:2])cc(Cl)c1Cl; hPhe(3-F,4-CF3) = N[C@@H](CCc1ccc(C(F)(F)F)c(F)c1)C(=O)O; NMePhe(4-CF3) = CN[C@@H](Cc1ccc(C(F)(F)F)cc1)C(=O)O; 3Oxa8azabicyclo(3.2.1)octane = C1CC2COCC1N2*; NMePhe(3-Br) = CN[C@@H](Cc1cccc(Br)c1)C(=O)O; NMePhe(3-Cl) = CN[C@@H](Cc1cccc(Cl)c1)C(=O)O; NMePhe(4-Me) = CN[C@@H](Cc1ccc(C)cc1)C(=O)O; hPhe(4-Cl) = N[C@@H](CCc1ccc(Cl)cc1)C(=O)O; NMedβ3hAla = C[C@H](CC(=O)[*:2])N(C)[*:1]; NMeCha = CN[C@@H](CC1CCCCC1)C(=O)O; NMeChg = CN[C@H](C(=O)O)C1CCCCC1; NMeI = CC[C@H](C)[C@H](NC)C(=O)O; NMeD = CN[C@@H](CC(=O)O)C(=O)O; NMeL = CN[C@@H](CC(C)C)C(=O)O; NMeNva = CCC[C@H](NC)C(=O)O; NMeV = CN[C@H](C(=O)O)C(C)C; Morpholide = C1CN(*)CCO1; NMeA = CN[C@@H](C)C(=O)O; Piperidide = C1CCN(*)CC1; Pyrrolidide = C1CCN(*)C1; Ac5c = NC1(C(=O)O)CCCC1; Aze = O=C(O)[C@@H]1CCN1; X14 = CC1(C)CCN(*)C1; Sar = CNCC(=O)O", "data": [{"compound": "CC[C@H](C)[C@@H]1NC(=O)[C@H](CC(C)C)N(C)C(=O)C[C@@H](C(=O)N2CCCCC2)N(C)C(=O)[C@H](C(C)C)N(C)C(=O)C2(CCCC2)NC(=O)[C@@H]2CCCN2C(=O)[C@H](CCc2ccc(C(F)(F)F)c(Cl)c2)NC(=O)CN(C)C(=O)[C@H]([C@@H](C)CC)N(C)C(=O)[C@@H]2CCN2C(=O)[C@H](C)N(C)C1=O", "note": "[Compound 1684] ([NMeL]I[NMeA][Aze][NMeI][Sar][hPhe(3-Cl-4-CF3)]P[Ac5c][NMeV][NMeD]-Piperidide; lactam N-11)", "values": [{"measurement": "pIC50", "setting": "[1]", "result": "6.30 to 7.00"}, {"measurement": "pIC50", "setting": "[2]", "result": 8.37}]}, {"compound": "CC[C@H](C)[C@@H]1NC(=O)[C@H](CC(C)C)N(C)C(=O)C[C@@H](C(=O)N2CCOCC2)N(C)C(=O)[C@H](C2CCCCC2)N(C)C(=O)C2(CCCC2)NC(=O)[C@@H]2CCCN2C(=O)[C@H](CCc2ccc(Cl)cc2)NC(=O)CN(C)C(=O)[C@H](CC2CCCCC2)N(C)C(=O)CN(C)C(=O)CN(C)C1=O", "note": "[Compound 1941] ([NMeL]I[Sar][Sar][NMeCha][Sar][hPhe(4-Cl)]P[Ac5c][NMeChg][NMeD]-Morpholide; lactam N-11)", "values": [{"measurement": "pIC50", "setting": "[1]", "result": "7.00 to 7.30"}, {"measurement": "pIC50", "setting": "[2]", "result": 8.82}]}, {"compound": "CC[C@H](C)[C@@H]1NC(=O)[C@H](CC(C)C)N(C)C(=O)C[C@@H](C(=O)N2C3CCC2COC3)N(C)C(=O)[C@H](C2CCCCC2)N(C)C(=O)C2(CCCC2)NC(=O)[C@@H]2CCCN2C(=O)[C@H](CCc2ccc(C(F)(F)F)c(F)c2)NC(=O)CN(C)C(=O)[C@H](CC2CCCCC2)N(C)C(=O)CN(C)C(=O)CN(C)C1=O", "note": "[Compound 1957] ([NMeL]I[Sar][Sar][NMeCha][Sar][hPhe(3-F,4-CF3)]P[Ac5c][NMeChg][NMeD]-{3Oxa8azabicyclo(3.2.1)octane}; lactam N-11)", "values": [{"measurement": "pIC50", "setting": "[1]", "result": "6.30 to 7.00"}, {"measurement": "pIC50", "setting": "[2]", "result": 8.92}]}, {"compound": "CC[C@H](C)[C@@H]1NC(=O)[C@H](CC(C)C)N(C)C(=O)C[C@@H](C)N(C)C(=O)[C@H](C(C)C)N(C)C(=O)C2(CCCC2)NC(=O)[C@@H]2CCCN2C(=O)[C@H](CCc2ccc(C(F)(F)F)c(Cl)c2)NC(=O)CN(C)C(=O)[C@H](Cc2cccc(Br)c2)N(C)C(=O)CN(C)C(=O)CN(C)C1=O", "note": "[Compound 1597] (cyclo([Ac5c][NMeV][NMedβ3hAla][NMeL]I[Sar][Sar][NMePhe(3-Br)][Sar][hPhe(3-Cl-4-CF3)]P))", "values": [{"measurement": "pIC50", "setting": "[1]", "result": "7.00 to 7.30"}, {"measurement": "pIC50", "setting": "[2]", "result": 7.96}]}, {"compound": "CC[C@H](C)[C@@H]1NC(=O)[C@H](C)N(C)C(=O)C[C@@H](C(=O)N2CCCCC2)N(C)C(=O)[C@H](C(C)C)N(C)C(=O)C2(CCCC2)NC(=O)[C@@H]2CCCN2C(=O)[C@H](CCc2cc(Cl)c(Cl)c(OC(C)(C)C)c2)NC(=O)CN(C)C(=O)[C@H](CC2CCCCC2)N(C)C(=O)CN(C)C(=O)CN(C)C1=O", "note": "[Compound 2073] ([NMeA]I[Sar][Sar][NMeCha][Sar][X19]P[Ac5c][NMeV][NMeD]-Piperidide; lactam N-11)", "values": [{"measurement": "pIC50", "setting": "[1]", "result": "< 6.30"}, {"measurement": "pIC50", "setting": "[2]", "result": 7.92}]}, {"compound": "CC[C@H](C)[C@@H]1NC(=O)[C@H](CC(C)C)N(C)C(=O)C[C@@H](C(=O)N2CCC(C)(C)C2)N(C)C(=O)[C@H](C(C)C)N(C)C(=O)C2(CCCC2)NC(=O)[C@@H]2CCCN2C(=O)[C@H](CCc2ccc(C(F)(F)F)c(Cl)c2)NC(=O)CN(C)C(=O)[C@H](CC2CCCCC2)N(C)C(=O)[C@@H]2CCN2C(=O)[C@H](C)N(C)C1=O", "note": "[Compound 1323] ([NMeL]I[NMeA][Aze][NMeCha][Sar][hPhe(3-Cl-4-CF3)]P[Ac5c][NMeV][NMeD]-X14; lactam N-11)", "values": [{"measurement": "pIC50", "setting": "[1]", "result": "6.30 to 7.00"}, {"measurement": "pIC50", "setting": "[2]", "result": 8.37}]}, {"compound": "CCC[C@H]1C(=O)N[C@@H]([C@@H](C)CC)C(=O)N(C)CC(=O)N(C)CC(=O)N(C)[C@@H](Cc2ccc(C(F)(F)F)cc2)C(=O)N(C)CC(=O)N[C@@H](CCc2ccc(C(F)(F)F)c(Cl)c2)C(=O)N2CCC[C@H]2C(=O)NC2(CCCC2)C(=O)N(C)[C@@H](C2CCCCC2)C(=O)N(C)[C@H](C(=O)N2CCCC2)CC(=O)N1C", "note": "[Compound 1984] ([NMeNva]I[Sar][Sar][NMePhe(4-CF3)][Sar][hPhe(3-Cl-4-CF3)]P[Ac5c][NMeChg][NMeD]-Pyrrolidide; lactam N-11)", "values": [{"measurement": "pIC50", "setting": "[1]", "result": "7.30 to 7.70"}, {"measurement": "pIC50", "setting": "[2]", "result": 9.42}]}, {"compound": "CC[C@H](C)[C@@H]1NC(=O)[C@H](CC(C)C)N(C)C(=O)C[C@@H](C(=O)N(C)C)N(C)C(=O)[C@H]([C@@H](C)CC)N(C)C(=O)C2(CCCC2)NC(=O)[C@H](Cc2cccc(Cl)c2)N(C)C(=O)[C@H](CCc2ccc(C(F)(F)F)c(Cl)c2)NC(=O)CN(C)C(=O)[C@H](Cc2ccc(C)cc2)N(C)C(=O)[C@@H]2CCN2C(=O)[C@H](C)N(C)C1=O", "note": "[Compound 783] ([NMeL]I[NMeA][Aze][NMePhe(4-Me)][Sar][hPhe(3-Cl-4-CF3)][NMePhe(3-Cl)][Ac5c][NMeI][NMeD]-NMe2; lactam N-11)", "values": [{"measurement": "pIC50", "setting": "[1]", "result": "7.00 to 7.30"}, {"measurement": "pIC50", "setting": "[2]", "result": 8.01}]}]}
